These results are taken from patent publication US20110129548A1, “Immunopotentiating Compositions Comprising Beta-1, 3/1, 6-D-Glucan and Uses Thereof” (BioAgra, LLC, priority 2006, published 2011).

Experiment [1] relates to macrophage cell line RAW264 cells. The experiment can be described thus: Hydrogen peroxide production by RAW264 macrophages. In kind it is cell-based, murine. The conditions noted are these: 1 h; for Fluorescence: control 229.00 ± 4.54. As for the experimental part:
To determine hydrogen peroxide production, macrophage cell line RAW264 cells were plated into 96 well tissue culture plates and cultured until confluent in phenol red-free alpha-minimum essential medium, supplemented with 10% fetal bovine serum. Once confluence was reached, the media was removed, the cells were washed, and substrate and test substances were added. To insure cell number uniformity at confluence, cell numbers were determined in 8 wells; if the number of cells differed by more than 10% the plate was not used. Following an incubation period of exactly 1h the reaction was stopped and resulting fluorescence measured with an ELISA-reader at λmax, excitation=312 nm, λmax, emission=420 nm. Zymosan, the residue from a hot alcoholic extraction of yeast, and curdlan, a linear beta-1,3-D-glucan, were used as positive controls.

Experiment [2] has as its system blood cells (WBC, RBC, MON, PMN). The experiment can be described thus: Effect of Vitamin D plus beta-1,3/1,6-D-glucan on blood cells (differential cell count). In kind it is in vivo. Conditions: rabbits, capsules for 9 weeks. As for the experimental part: To determine the effect of Vitamin D plus beta-1,3/1,6-D-glucan (AGRASTIM®) on the immunocompetence of an animal, rabbits (10 per group) were given capsules of equal weight comprising 10 mg of beta-1,3/1,6-D-glucan (AGRASTIM®), 10 mg of beta-1,3/1,6-D-glucan (AGRASTIM®) plus 50 IU of Vitamin D, or 50 IU Vitamin D for 9 weeks. At the end of 9 weeks the number of white blood cells (WBCs), red blood cells (RBCs), mononuclear cells (MONs), and polymorphonuclear cells (PMNs) were determined by differential cell count.

The mark [3] stands for this setting: percent with the control set to 100.

In the case of CURDLAN, in experiment [1] (dose 10 μg/assay), the H2O2-Release came to 0.76 nmol and the Fluorescence was 254.00 ± 1.02 arbitrary units. In experiment [1] (dose 50 μg/assay), this substance showed an H2O2-Release of 1.06 nmol and a Fluorescence of 345.00 ± 6.48 arbitrary units.
Regarding Vitamin D, in experiment [2], the “increase of PMNs” value was found to be 29%, the “increase of WBCs above control” value is recorded as “no effect” and the “increase of the number of RBCs” value was “neither beta-1,3/1,6-D-glucan alone nor Vitamin D had significant effects”. In experiment [2] (setting [3]), the MON turned out to be 83%, the PMN is given as 129%, the RBC amounted to 84% and the WBC stood at 100%.
